What all share (experiment): Kinase profiling in a biochemical assay panel (mobility shift assays and ELISA), %-inhibition at 1 μM; selectivity entropy
Assay [1] deals with T1, panel of more than 300 wild-type and mutant kinases (313 kinase panel) (Homo sapiens, UniProt O15530).
T1 sequence (O15530 1-556): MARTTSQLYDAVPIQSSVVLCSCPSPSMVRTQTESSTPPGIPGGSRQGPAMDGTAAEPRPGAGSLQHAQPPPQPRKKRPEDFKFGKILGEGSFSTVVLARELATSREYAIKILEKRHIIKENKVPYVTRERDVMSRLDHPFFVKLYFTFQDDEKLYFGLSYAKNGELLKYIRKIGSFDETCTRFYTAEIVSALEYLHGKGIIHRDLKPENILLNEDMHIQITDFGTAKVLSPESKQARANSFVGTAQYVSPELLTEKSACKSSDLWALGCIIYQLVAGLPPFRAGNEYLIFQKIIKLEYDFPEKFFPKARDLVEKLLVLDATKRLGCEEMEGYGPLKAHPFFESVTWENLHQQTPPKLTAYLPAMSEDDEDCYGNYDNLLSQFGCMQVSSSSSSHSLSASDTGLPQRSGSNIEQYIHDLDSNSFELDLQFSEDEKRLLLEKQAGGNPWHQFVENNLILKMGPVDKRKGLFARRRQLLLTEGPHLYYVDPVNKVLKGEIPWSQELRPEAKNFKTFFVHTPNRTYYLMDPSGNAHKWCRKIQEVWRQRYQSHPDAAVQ

Assay [2] deals with panel of more than 300 wild-type and mutant kinases (313 kinase panel) (Homo sapiens, UniProt P09769).
Assay [3] deals with T2, panel of more than 300 wild-type and mutant kinases (313 kinase panel) (Homo sapiens, UniProt P29323).
T2 sequence (P29323 19-1055): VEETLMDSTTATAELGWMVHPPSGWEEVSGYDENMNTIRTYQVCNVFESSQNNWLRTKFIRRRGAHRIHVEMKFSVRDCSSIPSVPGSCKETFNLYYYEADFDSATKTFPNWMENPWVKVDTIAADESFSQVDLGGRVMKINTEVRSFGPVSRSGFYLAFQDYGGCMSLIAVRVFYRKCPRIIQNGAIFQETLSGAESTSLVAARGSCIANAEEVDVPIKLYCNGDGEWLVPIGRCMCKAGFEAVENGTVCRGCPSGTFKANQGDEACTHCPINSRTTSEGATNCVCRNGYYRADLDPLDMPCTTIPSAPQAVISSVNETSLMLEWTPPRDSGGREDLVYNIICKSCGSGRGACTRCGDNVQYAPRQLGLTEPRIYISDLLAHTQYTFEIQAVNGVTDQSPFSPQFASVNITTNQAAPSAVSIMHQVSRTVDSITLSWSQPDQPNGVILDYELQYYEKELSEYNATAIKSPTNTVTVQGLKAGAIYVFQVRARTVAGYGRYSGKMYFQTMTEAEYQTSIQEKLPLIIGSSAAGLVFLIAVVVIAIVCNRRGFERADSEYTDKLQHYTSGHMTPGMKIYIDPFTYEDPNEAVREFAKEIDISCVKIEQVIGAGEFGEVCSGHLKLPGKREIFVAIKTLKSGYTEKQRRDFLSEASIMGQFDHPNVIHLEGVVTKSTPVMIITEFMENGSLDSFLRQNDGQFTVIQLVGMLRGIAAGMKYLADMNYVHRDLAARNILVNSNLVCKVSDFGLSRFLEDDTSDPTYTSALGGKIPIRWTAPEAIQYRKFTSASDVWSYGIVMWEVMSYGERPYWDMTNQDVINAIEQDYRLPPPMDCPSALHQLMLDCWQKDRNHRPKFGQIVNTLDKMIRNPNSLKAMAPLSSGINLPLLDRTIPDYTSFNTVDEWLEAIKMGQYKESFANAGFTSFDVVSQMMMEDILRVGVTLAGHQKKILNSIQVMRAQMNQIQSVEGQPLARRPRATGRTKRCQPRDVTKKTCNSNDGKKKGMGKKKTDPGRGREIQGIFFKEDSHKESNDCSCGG

Assay [4] has as its target T3, panel of more than 300 wild-type and mutant kinases (313 kinase panel) (Homo sapiens, UniProt Q92630).
T3 sequence (Q92630 1-601): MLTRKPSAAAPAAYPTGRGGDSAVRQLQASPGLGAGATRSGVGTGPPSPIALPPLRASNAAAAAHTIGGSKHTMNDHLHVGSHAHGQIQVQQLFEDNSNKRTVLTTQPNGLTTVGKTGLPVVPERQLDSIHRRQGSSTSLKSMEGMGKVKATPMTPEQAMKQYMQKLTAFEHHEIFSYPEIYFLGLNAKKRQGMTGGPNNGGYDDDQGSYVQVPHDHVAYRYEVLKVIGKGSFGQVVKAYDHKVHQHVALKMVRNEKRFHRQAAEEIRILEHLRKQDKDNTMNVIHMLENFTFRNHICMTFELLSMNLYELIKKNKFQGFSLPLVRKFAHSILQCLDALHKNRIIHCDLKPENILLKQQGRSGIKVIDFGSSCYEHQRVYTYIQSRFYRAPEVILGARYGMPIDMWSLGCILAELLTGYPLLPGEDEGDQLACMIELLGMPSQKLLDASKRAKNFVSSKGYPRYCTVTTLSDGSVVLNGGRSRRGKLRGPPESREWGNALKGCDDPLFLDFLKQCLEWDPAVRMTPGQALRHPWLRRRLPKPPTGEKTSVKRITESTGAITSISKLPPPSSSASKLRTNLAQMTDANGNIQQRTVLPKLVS

Structures are written as SMILES.

Consider `CO[C@H]1C[C@@H]2CC[C@@H](C)[C@@](O)(O2)C(=O)C(=O)N2CCCC[C@H]2C(=O)O[C@H]([C@H](C)C[C@@H]2CC[C@@H](OCCO)[C@H](OC)C2)CC(=O)[C@H](C)/C=C(\C)[C@@H](O)[C@@H](OC)C(=O)[C@H](C)C[C@H](C)/C=C/C=C/C=C/1C` [everolimus], for which the “%-inhibition of PDK1” value in assay [1] (kinase PDK1, 1 μM) was -9%. Further, in assay [2] (kinase FGR, compound at 1 μM), the “%-inhibition of FGR” value is 1%. Besides, in assay [3] (kinase EPHB2, compound at 1 μM), the “%-inhibition of EPHB2” value is -7%. Moreover, the “%-inhibition of DYRK2” value in assay [4] (kinase DYRK2, compound at 1 μM) is given as -10%.
Regarding `CCN(CC)CCNC(=O)c1c(C)[nH]c(/C=C2\C(=O)Nc3ccc(F)cc32)c1C` [sunitinib], the “%-inhibition of EPHB2” value in assay [3] (kinase EPHB2, compound at 1 μM) stood at 81%.
Turning to `CC(=O)Nc1cccc(-n2c(=O)n(C3CC3)c(=O)c3c(Nc4ccc(I)cc4F)n(C)c(=O)c(C)c32)c1` [trametinib], the “%-inhibition of PDK1” value in assay [1] (kinase PDK1, 1 μM) is -5.52%. In assay [2] (kinase FGR, compound at 1 μM), the “%-inhibition of FGR” value is reported as -9%. Further, the “%-inhibition of EPHB2” value in assay [3] (kinase EPHB2, compound at 1 μM) was -8%. Moreover, the “%-inhibition of DYRK2” value in assay [4] (kinase DYRK2, compound at 1 μM) is given as -0.0865%.
Taken in the same sequence, the figures for `O=S(=O)(c1cccc2cnccc12)N1CCCNCC1` [fasudil] were -2.83%, -4.71%, -7.43% and -1.3%.
Turning to `N#CC[C@H](C1CCCC1)n1cc(-c2ncnc3[nH]ccc23)cn1` [ruxolitinib], in assay [1] (kinase PDK1, 1 μM), the “%-inhibition of PDK1” value is -3.16%. In addition, the “%-inhibition of FGR” value in assay [2] (1 µM) is 10%. For the same compound, the “%-inhibition of EPHB2” value in assay [3] (kinase EPHB2, compound at 1 μM) stood at 5.54%. For the same compound, in assay [4] (kinase DYRK2, compound at 1 μM), the “%-inhibition of DYRK2” value is reported as -10%.
Regarding `COc1cc2nccc(Oc3ccc(NC(=O)C4(C(=O)Nc5ccc(F)cc5)CC4)cc3)c2cc1OC` [cabozantinib], the “%-inhibition of PDK1” value in assay [1] (kinase PDK1, 1 μM) is given as -7%. Moreover, the “%-inhibition of FGR” value in assay [2] (kinase FGR, compound at 1 μM) was found to be 94%. In assay [3] (kinase EPHB2, compound at 1 μM), the “%-inhibition of EPHB2” value came to 96%. For the same compound, the “%-inhibition of DYRK2” value in assay [4] (kinase DYRK2, compound at 1 μM) amounted to 17%.
On the same counts, the results for `CC(C)(C)c1nc(-c2cccc(NS(=O)(=O)c3c(F)cccc3F)c2F)c(-c2ccnc(N)n2)s1` [dabrafenib] are -5.38%, 82%, -3.38% and 6%.
Turning to `C[C@@H](Oc1cc(-c2cnn(C3CCNCC3)c2)cnc1N)c1c(Cl)ccc(F)c1Cl` [crizotinib], the “%-inhibition of PDK1” value in assay [1] (kinase PDK1, 1 μM) is reported as -5%. In addition, the “%-inhibition of FGR” value in assay [2] (kinase FGR, compound at 1 μM) was 70%. Moreover, the “%-inhibition of EPHB2” value in assay [3] (kinase EPHB2, compound at 1 μM) turned out to be 57%. For the same compound, the “%-inhibition of DYRK2” value in assay [4] (kinase DYRK2, compound at 1 μM) turned out to be 10%.
Taken in the same sequence, the figures for `CCCS(=O)(=O)Nc1ccc(F)c(C(=O)c2c[nH]c3ncc(-c4ccc(Cl)cc4)cc23)c1F` [vemurafenib] were -4%, 93%, -2.11% and 1%.
Taken in the same sequence, the figures for `COc1cc2c(Nc3ccc(Br)cc3F)ncnc2cc1OCC1CCN(C)CC1` [vandetanib] were -4.37%, 86%, 96% and -9%.
As to `C#Cc1cccc(Nc2ncnc3cc(OCCOC)c(OCCOC)cc23)c1` [erlotinib], in assay [1] (1 µM), the “%-inhibition of PDK1” value was found to be 3%. Moreover, the “%-inhibition of FGR” value in assay [2] (1 µM) was found to be 29%. Also, in assay [3] (1 µM), the “%-inhibition of EPHB2” value was 23%. For the same compound, the “%-inhibition of DYRK2” value in assay [4] (1 µM) is on record as 45%.
With `CNC(=O)c1cc(Oc2ccc(NC(=O)Nc3ccc(Cl)c(C(F)(F)F)c3)c(F)c2)ccn1` [regorafenib], the “%-inhibition of PDK1” value in assay [1] (kinase PDK1, 1 μM) is on record as -3%. The “%-inhibition of FGR” value in assay [2] (kinase FGR, compound at 1 μM) came out at 56%. The “%-inhibition of EPHB2” value in assay [3] (kinase EPHB2, compound at 1 μM) worked out at 84%. Further, the “%-inhibition of DYRK2” value in assay [4] (kinase DYRK2, compound at 1 μM) turned out to be 2%.
Consider `Cc1ccc(C(=O)Nc2ccc(CN3CCN(C)CC3)c(C(F)(F)F)c2)cc1C#Cc1cnc2cccnn12` [ponatinib], for which the “%-inhibition of PDK1” value in assay [1] (kinase PDK1, 1 μM) was -5%. Besides, in assay [2] (kinase FGR, compound at 1 μM), the “%-inhibition of FGR” value came to 101%. Besides, the “%-inhibition of EPHB2” value in assay [3] (kinase EPHB2, compound at 1 μM) was 102%.
In the case of `Cc1ccc(Nc2nccc(N(C)c3ccc4c(C)n(C)nc4c3)n2)cc1S(N)(=O)=O` [pazopanib], the “%-inhibition of PDK1” value in assay [1] (kinase PDK1, 1 μM) is -0.284%. Moreover, the “%-inhibition of FGR” value in assay [2] (kinase FGR, compound at 1 μM) is listed as 86%. The “%-inhibition of EPHB2” value in assay [3] (kinase EPHB2, compound at 1 μM) is 16%. In assay [4] (kinase DYRK2, compound at 1 μM), the “%-inhibition of DYRK2” value is reported as -1%.
Taken in the same sequence, the figures for `CO[C@H]1C[C@@H]2CC[C@@H](C)[C@@](O)(O2)C(=O)C(=O)N2CCCC[C@H]2C(=O)O[C@H]([C@H](C)C[C@@H]2CC[C@@H](OC(=O)C(C)(CO)CO)[C@H](OC)C2)CC(=O)[C@H](C)/C=C(\C)[C@@H](O)[C@@H](OC)C(=O)[C@H](C)C[C@H](C)/C=C/C=C/C=C/1C` [temsirolimus] were -8%, -3%, -5.66% and -3.63%.
Taken in the same sequence, the figures for `Cc1cn(-c2cc(NC(=O)c3ccc(C)c(Nc4nccc(-c5cccnc5)n4)c3)cc(C(F)(F)F)c2)cn1` [nilotinib] were -4.33%, 55%, 85% and 28%.
As for `Cc1nc(Nc2ncc(C(=O)Nc3c(C)cccc3Cl)s2)cc(N2CCN(CCO)CC2)n1` [dasatinib], in assay [4] (kinase DYRK2, compound at 1 μM), the “%-inhibition of DYRK2” value was determined as 12%.
`COc1cc(Nc2c(C#N)cnc3cc(OCCCN4CCN(C)CC4)c(OC)cc23)c(Cl)cc1Cl` [bosutinib]: the “%-inhibition of PDK1” value in assay [1] (kinase PDK1, 1 μM) was -4.64%. Moreover, in assay [2] (kinase FGR, compound at 1 μM), the “%-inhibition of FGR” value was 92%. In addition, the “%-inhibition of EPHB2” value in assay [3] (kinase EPHB2, compound at 1 μM) is 95%.
Regarding `CS(=O)(=O)CCNCc1ccc(-c2ccc3ncnc(Nc4ccc(OCc5cccc(F)c5)c(Cl)c4)c3c2)o1` [lapatinib], the “%-inhibition of PDK1” value in assay [1] (1 µM) was -2.71%. Besides, the “%-inhibition of FGR” value in assay [2] (kinase FGR, compound at 1 μM) worked out at 10%. Also, the “%-inhibition of EPHB2” value in assay [3] (kinase EPHB2, compound at 1 μM) is recorded as 4.6%. The “%-inhibition of DYRK2” value in assay [4] (1 µM) came out at 10%.

The record behind these values is publication PMC3961306, “Comparison of the Cancer Gene Targeting and Biochemical Selectivities of All Targeted Kinase Inhibitors Approved for Clinical Use” (PLoS ONE, 2014).
